Literature values, collected in patent publication US20190183792A1, “COMPOSITION AND METHOD FOR TREATING HERPESVIRUS IN MAMMALS” (VELOCE BIOPHARMA, LLC, priority 2016, published 2019).

Assays:
[1] = tested on: Feline Herpesvirus; conditions: research by Nasisse
[2] = tested on: Human herpes simplex virus
[3] = compared among the antivirals
[4] = tested on: ocular herpesvirus infection; conditions: canine models in vivo

SMILES	effectiveness against Feline Herpesvirus (rank order) [1]	solubility [3]	also measured
Nc1ncnc2c1ncn2[C@@H]1O[C@H](CO)[C@@H](O)[C@@H]1O [Adenine Arabinoside]	then Adenine Arabinoside		
Nc1nc2c(ncn2COCCO)c(=O)[nH]1 [Acyclovir]	not effective		effectiveness against Human herpes simplex virus [2]: most effective
O=c1[nH]c(=O)n([C@H]2C[C@H](O)[C@@H](CO)O2)cc1I [Idoxuridine]		poorly soluble	
Nc1ccn(C[C@@H](CO)OCP(=O)(O)O)c(=O)n1 [Cidofovir]			local ocular toxicity [4]: local ocular toxicity is significant; viral shedding [4]: decrease viral shedding
O=c1[nH]c(=O)n([C@H]2C[C@H](O)[C@@H](CO)O2)cc1C(F)(F)F [Triflurothymidine]	most effective	most soluble	effectiveness [3]: most effective; toxicity [3]: least toxic
